Values of other authors, collected in patent US20020192774A1, “Method for processing lignocellulosic material” (priority 2000, published 2002).

System: yeast
Settings: pH values as low as 4.5; Taherzadeh et al., 1997

CC(=O)O [Acetic acid]
acetate concentration at which yeast is able to grow: 10 g acetate per litre
